Several values for one entry are separate records, joined by “and”; a condition that tells them apart may be missing. Equal values may be shown once.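 Assay format: 96-well plates, 48-hour exposure. GI50 marks 50% less growth. At the TGI there is no net growth.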
Assays:
Test in all cases: NCI anticancer screen, dose series, 48 h
NCI-H522 lung = system: NCI-H522 lung
HOP-62 NSCLC = system: HOP-62 NSCLC
MDA-MB-435 = system: MDA-MB-435
SNB-19 CNS = system: SNB-19 CNS
SF-295 CNS = system: SF-295 CNS
MALME-3M melanoma = system: MALME-3M melanoma
SW-620 colon = system: SW-620 colon
NCI-H226 lung = system: NCI-H226 lung
SK-OV-3 ovarian = system: SK-OV-3 ovarian
HOP-92 NSCLC = system: HOP-92 NSCLC

Row | Compound | GI50 (NCI-H522 lung) | TGI (NCI-H522 lung) | GI50 (HOP-62 NSCLC) | TGI (HOP-62 NSCLC) | GI50 (MDA-MB-435) | TGI (MDA-MB-435) | GI50 (SNB-19 CNS) | TGI (SNB-19 CNS) | GI50 (SF-295 CNS) | TGI (SF-295 CNS) | GI50 (MALME-3M melanoma) | TGI (MALME-3M melanoma) | GI50 (SW-620 colon) | TGI (SW-620 colon) | GI50 (NCI-H226 lung) [µM] | TGI (NCI-H226 lung) | GI50 (SK-OV-3 ovarian) | TGI (SK-OV-3 ovarian) | GI50 (HOP-92 NSCLC) [µM] | TGI (HOP-92 NSCLC)
1 | COc1ccccc1-n1c(-c2cc(O)ccc2C)cn2c3c(=O)[nH]c(=O)n(C)c3nc12 | 1.79 µM | > 100 µM | 7.74 µM | > 100 µM | > 100 µM | > 100 µM | > 100 µM | > 100 µM | 5.34 µM | > 100 µM | > 100 µM | > 100 µM | > 100 µM | > 100 µM | 78.7 | > 100 µM | 2.78 µM | > 100 µM | – | –
2 | CC1/C=C/C=C/C=C/C=C/C=C/C=C/C=C/C(O[C@@H]2O[C@H](C)[C@H](O)[C@@H](O)[C@@H]2N)CC(O)C(C(=O)O)C(O)CC(=O)CC(O)CC(O)CC(O)CC(=O)CCCC(=O)CC(=O)OC1C(C)CC(C)C(O)CC(=O)c1ccc(N)cc1 (stereo not given in full) | 0.0512 µM and 0.161 µM | 0.0986 µM and 0.314 µM | 0.063 µM and 0.192 µM | 0.118 µM and 0.402 µM | 0.0597 µM and 0.208 µM | 0.108 µM and 0.438 µM | 0.066 µM and 0.279 µM | 0.147 µM and 1.09 µM | 0.0692 µM and 0.232 µM | 0.155 µM and 0.605 µM | 0.0543 µM and 0.177 µM | 0.104 µM and 0.365 µM | 0.0588 µM and 0.198 µM | 0.109 µM and 0.43 µM | 0.218 | 0.581 µM | 0.0674 µM and 0.298 µM | 0.119 µM and 0.908 µM | 0.184 | 0.537 µM
3 | CC(=O)OC1CC(n2cc(F)c(=O)[nH]c2=O)OC1CO (stereo not given) | – | 23.9 µM | – | 10.1 µM | – | > 100 µM | – | > 100 µM | – | > 89 µM | – | > 100 µM | – | > 86.8 µM | – | > 100 µM | – | > 100 µM | – | > 69 µM
4 | CC(C)C1OC(=O)C=C1Sc1ccccc1 (stereo not given) | – | > 100 µM | – | > 100 µM | – | > 100 µM | – | > 100 µM | – | > 100 µM | – | > 100 µM | – | > 100 µM | – | > 100 µM | – | > 100 µM | – | –
5 | CC(C)CCOc1ccc(-c2n[nH]c(C(F)(F)F)c2-c2cncc(C#N)c2)c(O)c1 | 1.8 µM | 10 µM | 2.61 µM | 7.65 µM | 3.6 µM | 32.6 µM | 2.98 µM | 31.5 µM | 2.33 µM | 6.7 µM | 1.85 µM | 6.56 µM | 3.44 µM | > 100 µM | 2.57 | 9.98 µM | 2.2 µM | 6.6 µM | 0.519 | 3.33 µM
6 | CCNCC(=O)O[C@]1(CC)C(=O)OCc2c1cc1n(c2=O)Cc2cc3ccccc3nc2-1 | – | 7.97 µM | – | 0.274 µM | – | 7.82 µM | – | > 100 µM | – | 4.66 µM | – | 13.2 µM | – | > 62.5 µM | – | 1.29 µM | – | 10.8 µM | – | 13.8 µM
7 | COc1ccc(-c2ccc(/C=N/n3c(COc4ccccc4Cl)nn(CN4CCN(C)CC4)c3=S)o2)c([N+](=O)[O-])c1 | 29.5 µM | > 100 µM | 21.7 µM | 37 µM | 18.3 µM | 40.9 µM | 27.1 µM | > 100 µM | – | – | 20.9 µM | 49.2 µM | – | – | 15.6 | 43.5 µM | 30.6 µM | 83.8 µM | 21 | 70.7 µM
8 | CN(C)c1ccc(C(=C2C=CC(=[N+](C)C)C=C2)c2ccc(N(C)C)cc2)cc1 (tested in a mixture with another compound) | – | 1.06 µM | 0.0446 µM | 1.29 µM | 0.0626 µM | 0.676 µM | – | 1.56 µM | 0.0483 µM | 0.396 µM | 0.127 µM | 0.56 µM | 0.0476 µM | 1.35 µM | – | – | – | 0.933 µM | – | 0.714 µM
9 | CCCCCCCCCCCCCCCCCC1=NCCN1CS(=O)(=O)O | 24.5 µM | 54 µM | 14.1 µM | 31.4 µM | 2.84 µM | 9.82 µM | 17.9 µM | 40.9 µM | 3.55 µM | 16.5 µM | – | – | 7.19 µM | 31.2 µM | 17.4 | 40.1 µM | 18.1 µM | 39.4 µM | 7.82 | 26.2 µM
10 | CC(=O)N1CC(Nc2ccc(OC(F)(F)F)cc2)=CC1=O | 1.8 µM | 5.75 µM | 3.51 µM | > 100 µM | 0.195 µM | 0.439 µM | 3.22 µM | > 100 µM | 2.86 µM | > 100 µM | 61.5 µM | > 100 µM | 0.476 µM | > 100 µM | 3.98 | 55.9 µM | 3.53 µM | > 100 µM | – | –
11 | CN1CCCNc2c(c(=O)c2=O)NCCCN(C)CCCNc2c(c(=O)c2=O)NCCCN(C)CCCNc2c(c(=O)c2=O)NCCCN(C)CCCNc2c(c(=O)c2=O)NCCCN(C)CCCNc2c(c(=O)c2=O)NCCCN(C)CCCNc2c(c(=O)c2=O)NCCCN(C)CCCNc2c(c(=O)c2=O)NCCC1 | 6.91 µM | > 50 µM | 4.41 µM | 13.8 µM | 2.68 µM | 11.5 µM | 2.59 µM | 33.9 µM | 5.52 µM | 12.9 µM | 1.11 µM | 3.54 µM | 4.63 µM | 25.3 µM | 8.43 | 21.8 µM | 2.46 µM | 8.29 µM | – | –
12 | CC[C@H]1CN2CCc3cc(OC)c(OC)cc3[C@@H]2C[C@@H]1C[C@H]1NCCc2cc(O)c(OC)cc21 | – | – | 0.0245 µM and 0.0294 µM | 0.0967 µM and 0.735 µM and 0.13 µM | 0.0183 µM | 0.0377 µM and 0.156 µM | – | 0.0977 µM and 0.0271 µM | – | 0.0674 µM and 0.0385 µM and 0.153 µM | – | 0.0795 µM and 0.355 µM and 0.265 µM | – | 0.0585 µM and < 0.0212 µM and 0.19 µM | – | 0.0593 µM and 0.0285 µM | – | – | – | 0.0742 µM and < 0.0176 µM
13 | Cc1ccc(NC(=O)NC(=O)c2ccc([N+](=O)[O-])cc2[N+](=O)[O-])cc1Oc1ncc(Cl)cn1 | – | 0.603 µM | – | 12.5 µM | – | 0.542 µM | – | 21.4 µM | – | 43.5 µM | – | 22.3 µM | – | 12.6 µM | – | 2.53 µM | – | 25.7 µM | – | –
14 | COc1cc(C(=O)/C=C/c2cc(C(=O)c3cc(OC)c(OC)c(OC)c3)ccc2OC)ccc1N | – | – | 2.03 µM | 8.31 µM | 1.19 µM | > 100 µM | – | – | 2.3 µM | 17.4 µM | 1.47 µM | 4.16 µM | 0.374 µM | > 100 µM | 2.14 | 7.39 µM | 3.16 µM | 16.1 µM | 2.94 | > 100 µM
15 | CSc1cnn(CCC#N)c(=O)n1 | – | > 100 µM | – | > 100 µM | – | > 100 µM | – | > 100 µM | – | > 100 µM | – | > 100 µM | – | > 100 µM | – | > 100 µM | – | > 100 µM | – | –

Source: PubChem BioAssay (NCI)
